Data published in ChEMBL document CHEMBL4622942, “Design, synthesis and biological evaluation of potent EGFR kinase inhibitors against 19D/T790M/C797S mutation” (Bioorg Med Chem Lett, 2020).
Values belong to the molecule of their own block, whether it stands above or below them. The source made the active and inactive calls. The calls are words filed in the database; no cut-off is given here.

Experiments:
A-431 = assay: Antiproliferative activity against human A431 cells overexpressing EGFR assessed as reduction in cell viability by CCK8 assay; assay type: functional, cell-based
NCI-H1975 = assay: Antiproliferative activity against human NCI-H1975 cells harboring EGFR L858R/T790M mutant assessed as reduction in cell viability by CCK8 assay; assay type: functional, cell-based
BaF3 [1] = assay: Antiproliferative activity against mouse BAF3 cells harboring EGFR 19D/T790M/C797S mutant assessed as reduction in cell viability by CCK8 assay; assay type: functional, cell-based
BaF3 [2] = assay: Cell cycle arrest in mouse BAF3 cells harboring EGFR 19D/T790M/C797S mutant assessed as accumulation at G1 phase at 1 uM measured after 24 hrs by flow cytometry analysis (reference value: 39.62 %); assay type: functional
BaF3 [3] = assay: Cell cycle arrest in mouse BAF3 cells harboring EGFR 19D/T790M/C797S mutant assessed as accumulation at S phase at 1 uM measured after 24 hrs by flow cytometry analysis (reference value: 52.43 %); assay type: functional
BaF3 [4] = assay: Cell cycle arrest in mouse BAF3 cells harboring EGFR 19D/T790M/C797S mutant assessed as accumulation at G2 phase at 1 uM measured after 24 hrs by flow cytometry analysis (reference value: 7.94 %); assay type: functional
[5] = target: Epidermal growth factor receptor (Homo sapiens, UniProt P00533); assay: Inhibition of wild type EGFR (unknown origin) by ELISA
Epidermal growth factor receptor (Homo sapiens, UniProt P00533), sequence (P00533 whole entry): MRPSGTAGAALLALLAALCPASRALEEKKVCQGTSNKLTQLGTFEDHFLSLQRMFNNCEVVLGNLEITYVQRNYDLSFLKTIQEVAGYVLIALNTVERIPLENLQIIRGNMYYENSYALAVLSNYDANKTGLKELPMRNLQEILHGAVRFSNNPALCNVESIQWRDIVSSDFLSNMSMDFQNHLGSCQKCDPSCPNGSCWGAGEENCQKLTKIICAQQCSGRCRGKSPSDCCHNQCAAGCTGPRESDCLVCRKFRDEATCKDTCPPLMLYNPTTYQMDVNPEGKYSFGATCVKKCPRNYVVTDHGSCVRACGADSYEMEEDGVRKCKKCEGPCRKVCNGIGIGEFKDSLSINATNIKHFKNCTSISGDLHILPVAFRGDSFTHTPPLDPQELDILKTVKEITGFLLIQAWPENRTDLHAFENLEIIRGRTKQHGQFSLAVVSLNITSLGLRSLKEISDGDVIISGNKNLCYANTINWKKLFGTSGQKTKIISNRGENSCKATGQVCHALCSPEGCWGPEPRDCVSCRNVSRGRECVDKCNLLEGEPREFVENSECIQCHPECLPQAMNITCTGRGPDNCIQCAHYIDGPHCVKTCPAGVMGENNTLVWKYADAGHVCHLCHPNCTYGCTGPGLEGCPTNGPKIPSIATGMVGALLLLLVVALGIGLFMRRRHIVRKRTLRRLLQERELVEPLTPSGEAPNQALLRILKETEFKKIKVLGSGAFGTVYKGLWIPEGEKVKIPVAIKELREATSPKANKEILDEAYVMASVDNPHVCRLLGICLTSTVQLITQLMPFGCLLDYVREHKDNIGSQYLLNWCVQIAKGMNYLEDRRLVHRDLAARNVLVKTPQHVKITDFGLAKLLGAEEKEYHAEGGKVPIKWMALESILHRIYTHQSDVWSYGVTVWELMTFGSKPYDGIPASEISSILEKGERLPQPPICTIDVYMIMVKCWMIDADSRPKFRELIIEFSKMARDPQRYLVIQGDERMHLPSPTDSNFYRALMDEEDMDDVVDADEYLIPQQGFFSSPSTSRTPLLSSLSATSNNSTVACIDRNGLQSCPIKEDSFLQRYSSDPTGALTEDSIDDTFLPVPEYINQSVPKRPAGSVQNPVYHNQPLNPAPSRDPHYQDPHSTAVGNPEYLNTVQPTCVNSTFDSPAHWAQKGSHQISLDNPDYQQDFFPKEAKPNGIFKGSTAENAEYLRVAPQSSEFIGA

[6] = target: Epidermal growth factor receptor (Homo sapiens, UniProt P00533, L858R/T790M); assay: Inhibition of EGFR L858R/T790M mutant (unknown origin) by ELISA
Epidermal growth factor receptor (Homo sapiens, UniProt P00533, L858R/T790M), sequence (P00533 25-1210 T790M/L858R limits assumed): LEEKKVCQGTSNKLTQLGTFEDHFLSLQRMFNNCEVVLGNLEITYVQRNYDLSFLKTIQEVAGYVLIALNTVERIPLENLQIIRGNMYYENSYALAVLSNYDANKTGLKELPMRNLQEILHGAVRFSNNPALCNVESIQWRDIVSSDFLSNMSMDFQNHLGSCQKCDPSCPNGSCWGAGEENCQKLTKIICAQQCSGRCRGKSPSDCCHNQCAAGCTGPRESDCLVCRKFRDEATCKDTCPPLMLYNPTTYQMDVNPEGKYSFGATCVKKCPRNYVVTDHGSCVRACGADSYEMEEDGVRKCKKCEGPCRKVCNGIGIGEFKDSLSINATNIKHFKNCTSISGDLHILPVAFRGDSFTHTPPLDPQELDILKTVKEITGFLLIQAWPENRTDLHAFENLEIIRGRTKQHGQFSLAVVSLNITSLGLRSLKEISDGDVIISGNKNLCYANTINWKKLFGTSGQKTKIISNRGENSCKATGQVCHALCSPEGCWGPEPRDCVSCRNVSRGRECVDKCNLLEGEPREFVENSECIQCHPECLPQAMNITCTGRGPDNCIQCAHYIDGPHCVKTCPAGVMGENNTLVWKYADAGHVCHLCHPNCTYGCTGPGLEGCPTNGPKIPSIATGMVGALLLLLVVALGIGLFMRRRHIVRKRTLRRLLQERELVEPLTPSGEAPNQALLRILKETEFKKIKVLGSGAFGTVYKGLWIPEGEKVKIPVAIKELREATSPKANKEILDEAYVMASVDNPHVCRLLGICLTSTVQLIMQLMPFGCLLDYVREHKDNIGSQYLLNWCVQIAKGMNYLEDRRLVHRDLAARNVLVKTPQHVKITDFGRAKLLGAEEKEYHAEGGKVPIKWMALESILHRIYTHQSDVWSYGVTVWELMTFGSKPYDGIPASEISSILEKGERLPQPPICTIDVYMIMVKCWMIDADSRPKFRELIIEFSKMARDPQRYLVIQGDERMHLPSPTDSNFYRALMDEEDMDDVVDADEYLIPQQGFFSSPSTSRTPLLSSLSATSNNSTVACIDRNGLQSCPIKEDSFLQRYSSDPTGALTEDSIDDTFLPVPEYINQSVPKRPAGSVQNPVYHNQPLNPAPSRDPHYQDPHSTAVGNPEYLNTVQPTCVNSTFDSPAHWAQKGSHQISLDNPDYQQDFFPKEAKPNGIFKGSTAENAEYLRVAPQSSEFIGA

[7] = target: Epidermal growth factor receptor (Homo sapiens, UniProt P00533, C797S/L858R/T790M); assay: Inhibition of EGFR L858R/T790M/C797S mutant (unknown origin) by ELISA
Epidermal growth factor receptor (Homo sapiens, UniProt P00533, C797S/L858R/T790M), sequence (P00533 25-1210 T790M/C797S/L858R limits assumed): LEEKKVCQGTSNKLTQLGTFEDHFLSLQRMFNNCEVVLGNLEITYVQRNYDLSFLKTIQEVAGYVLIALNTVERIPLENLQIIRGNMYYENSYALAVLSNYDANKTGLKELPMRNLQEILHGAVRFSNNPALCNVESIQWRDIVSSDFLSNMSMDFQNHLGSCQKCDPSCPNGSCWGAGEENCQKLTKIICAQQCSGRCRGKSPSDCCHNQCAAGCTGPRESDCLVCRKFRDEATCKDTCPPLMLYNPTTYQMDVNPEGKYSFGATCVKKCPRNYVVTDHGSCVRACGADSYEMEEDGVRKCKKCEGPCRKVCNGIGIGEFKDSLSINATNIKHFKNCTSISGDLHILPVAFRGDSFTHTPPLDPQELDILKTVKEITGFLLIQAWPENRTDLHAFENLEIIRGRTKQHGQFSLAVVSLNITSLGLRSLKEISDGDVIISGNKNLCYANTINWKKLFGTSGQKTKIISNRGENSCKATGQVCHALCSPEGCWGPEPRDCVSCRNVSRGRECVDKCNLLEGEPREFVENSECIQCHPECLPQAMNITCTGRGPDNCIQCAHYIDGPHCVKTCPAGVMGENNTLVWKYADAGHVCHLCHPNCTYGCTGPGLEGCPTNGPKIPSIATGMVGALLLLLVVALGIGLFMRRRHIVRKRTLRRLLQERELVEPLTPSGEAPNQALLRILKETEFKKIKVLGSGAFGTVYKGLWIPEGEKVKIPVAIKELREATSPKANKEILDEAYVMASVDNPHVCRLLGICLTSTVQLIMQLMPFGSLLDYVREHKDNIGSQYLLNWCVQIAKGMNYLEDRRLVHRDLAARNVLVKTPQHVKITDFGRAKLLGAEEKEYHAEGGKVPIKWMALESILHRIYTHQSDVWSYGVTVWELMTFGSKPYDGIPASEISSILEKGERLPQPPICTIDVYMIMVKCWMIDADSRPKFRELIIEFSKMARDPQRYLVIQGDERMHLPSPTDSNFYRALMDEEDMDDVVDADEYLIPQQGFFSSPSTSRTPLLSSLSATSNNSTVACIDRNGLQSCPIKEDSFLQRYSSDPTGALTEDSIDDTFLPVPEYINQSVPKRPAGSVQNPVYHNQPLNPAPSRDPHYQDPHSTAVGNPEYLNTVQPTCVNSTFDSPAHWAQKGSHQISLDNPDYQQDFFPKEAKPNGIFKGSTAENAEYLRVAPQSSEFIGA

[8] = target: Epidermal growth factor receptor (Homo sapiens, UniProt P00533, C797S/EX19DEL/T790M); assay: Inhibition of EGFR 19D/T790M/C797S mutant (unknown origin) by ELISA
Epidermal growth factor receptor (Homo sapiens, UniProt P00533, C797S/EX19DEL/T790M), sequence (P00533 whole entry, looked up, stated change not applied): as the sequence (P00533 whole entry) above

[9] = Selectivity index, ratio of IC50 for human A431 cells overexpressing EGFR assessed as reduction in cell viability by CCK8 assay to IC50 for human NCI-H1975 cells harboring EGFR […]/T790M assessed as reduction in cell viability by CCK8 assay; assay type: functional
[10] = Selectivity index, ratio of IC50 for human A431 cells overexpressing EGFR assessed as reduction in cell viability by CCK8 assay to IC50 for mouse BAF3 cells harboring EGFR 19D/T790M/C797S assessed as reduction in cell viability by CCK8 assay; assay type: functional
BaF3 [11] = assay: Induction of apoptosis in mouse BAF3 cells harboring EGFR 19D/T790M/C797S mutant assessed as live cells at 1 uM measured after 24 hrs by annexinV-FITC/propidium iodide staining based flow cytometry analysis (reference value: 82.74 %); assay type: functional
BaF3 [12] = assay: Induction of apoptosis in mouse BAF3 cells harboring EGFR 19D/T790M/C797S mutant assessed as early apoptotic cells at 1 uM measured after 24 hrs by annexinV-FITC/propidium iodide staining based flow cytometry analysis (reference value: 15.09 %); assay type: functional
BaF3 [13] = assay: Induction of apoptosis in mouse BAF3 cells harboring EGFR 19D/T790M/C797S mutant assessed as late apoptotic cells at 1 uM measured after 24 hrs by annexinV-FITC/propidium iodide staining based flow cytometry analysis (reference value: 2.03 %); assay type: functional
BaF3 [14] = assay: Induction of apoptosis in mouse BAF3 cells harboring EGFR 19D/T790M/C797S mutant assessed as necrotic cells at 1 uM measured after 24 hrs by annexinV-FITC/propidium iodide staining based flow cytometry analysis (reference value: 0.13 %); assay type: functional
BaF3 [15] = assay: Induction of apoptosis in mouse BAF3 cells harboring EGFR 19D/T790M/C797S mutant assessed as live cells at 10 uM measured after 24 hrs by annexinV-FITC/propidium iodide staining based flow cytometry analysis (reference value: 82.74 %); assay type: functional
BaF3 [16] = assay: Induction of apoptosis in mouse BAF3 cells harboring EGFR 19D/T790M/C797S mutant assessed as early apoptotic cells at 10 uM measured after 24 hrs by annexinV-FITC/propidium iodide staining based flow cytometry analysis (reference value: 15.09 %); assay type: functional
BaF3 [17] = assay: Induction of apoptosis in mouse BAF3 cells harboring EGFR 19D/T790M/C797S mutant assessed as late apoptotic cells at 10 uM measured after 24 hrs by annexinV-FITC/propidium iodide staining based flow cytometry analysis (reference value: 2.03 %); assay type: functional
BaF3 [18] = assay: Induction of apoptosis in mouse BAF3 cells harboring EGFR 19D/T790M/C797S mutant assessed as necrotic cells at 10 uM measured after 24 hrs by annexinV-FITC/propidium iodide staining based flow cytometry analysis (reference value: 0.13 %); assay type: functional
BaF3 [19] = assay: Induction of apoptosis in mouse BAF3 cells harboring EGFR 19D/T790M/C797S mutant assessed as live cells at 50 uM measured after 24 hrs by annexinV-FITC/propidium iodide staining based flow cytometry analysis (reference value: 82.74 %); assay type: functional
BaF3 [20] = assay: Induction of apoptosis in mouse BAF3 cells harboring EGFR 19D/T790M/C797S mutant assessed as early apoptotic cells at 50 uM measured after 24 hrs by annexinV-FITC/propidium iodide staining based flow cytometry analysis (reference value: 15.09 %); assay type: functional
BaF3 [21] = assay: Induction of apoptosis in mouse BAF3 cells harboring EGFR 19D/T790M/C797S mutant assessed as late apoptotic cells at 50 uM measured after 24 hrs by annexinV-FITC/propidium iodide staining based flow cytometry analysis (reference value: 2.03 %); assay type: functional
BaF3 [22] = assay: Induction of apoptosis in mouse BAF3 cells harboring EGFR 19D/T790M/C797S mutant assessed as necrotic cells at 50 uM measured after 24 hrs by annexinV-FITC/propidium iodide staining based flow cytometry analysis (reference value: 0.13 %); assay type: functional
BaF3 [23] = assay: Induction of apoptosis in mouse BAF3 cells harboring EGFR 19D/T790M/C797S mutant measured after 24 hrs by annexinV-FITC/propidium iodide staining based flow cytometry analysis; assay type: functional, cell-based
BaF3 [24] = assay: Cell cycle arrest in mouse BAF3 cells harboring EGFR 19D/T790M/C797S mutant assessed as accumulation at G1 phase at 10 uM measured after 24 hrs by flow cytometry analysis (reference value: 39.62 %); assay type: functional
BaF3 [25] = assay: Cell cycle arrest in mouse BAF3 cells harboring EGFR 19D/T790M/C797S mutant assessed as accumulation at S phase at 10 uM measured after 24 hrs by flow cytometry analysis (reference value: 52.43 %); assay type: functional
BaF3 [26] = assay: Cell cycle arrest in mouse BAF3 cells harboring EGFR 19D/T790M/C797S mutant assessed as accumulation at G2 phase at 10 uM measured after 24 hrs by flow cytometry analysis (reference value: 7.94 %); assay type: functional
BaF3 [27] = assay: Cell cycle arrest in mouse BAF3 cells harboring EGFR 19D/T790M/C797S mutant assessed as accumulation at G1 phase at 20 uM measured after 24 hrs by flow cytometry analysis (reference value: 39.62 %); assay type: functional
BaF3 [28] = assay: Cell cycle arrest in mouse BAF3 cells harboring EGFR 19D/T790M/C797S mutant assessed as accumulation at S phase at 20 uM measured after 24 hrs by flow cytometry analysis (reference value: 52.43 %); assay type: functional
BaF3 [29] = assay: Cell cycle arrest in mouse BAF3 cells harboring EGFR 19D/T790M/C797S mutant assessed as accumulation at G2 phase at 20 uM measured after 24 hrs by flow cytometry analysis (reference value: 7.94 %); assay type: functional
[30] = tested on: Epidermal growth factor receptor (Homo sapiens), P00533 [UNDEFINED MUTATION]; assay: Inhibition of EGFR 19D/T790M/C797S mutant (unknown origin) expressed in mouse BAF3 cells assessed as reduction in EGF-stimulated EGFR phosphorylation pretreated for 3 hrs followed by EGF stimulation by Western blot analysis; assay type: cell-based
[31] = tested on: Epidermal growth factor receptor (Homo sapiens), P00533 [UNDEFINED MUTATION]; assay: Inhibition of EGFR 19D/T790M/C797S mutant (unknown origin) expressed in mouse BAF3 cells assessed as reduction in EGF-stimulated ERK phosphorylation pretreated for 3 hrs followed by EGF stimulation by Western blot analysis; assay type: cell-based
[32] = tested on: Epidermal growth factor receptor (Homo sapiens), P00533 [UNDEFINED MUTATION]; assay: Inhibition of EGFR 19D/T790M/C797S mutant (unknown origin) expressed in mouse BAF3 cells assessed as reduction in EGF-stimulated Akt phosphorylation at 5 to 100 uM pretreated for 3 hrs followed by EGF stimulation by Western blot analysis; assay type: cell-based
BaF3 [33] = assay: Cell cycle arrest in mouse BAF3 cells harboring EGFR 19D/T790M/C797S mutant assessed as accumulation at G1 phase measured after 24 hrs by flow cytometry analysis; assay type: functional, cell-based

SMILES: C=CC(=O)Nc1cc(Nc2nccc(-c3cn(C)c4ccccc34)n2)c(OC)cc1N(C)CCN(C)C [OSIMERTINIB]
IC50 (A-431): […] | IC50 (NCI-H1975): […] | IC50 (BaF3 [1]): 5470 nM | Activity (BaF3 [2]): 45.49% | Activity (BaF3 [3]): 45.58% | Activity (BaF3 [4]): 8.93%

SMILES: CCC(=O)Nc1cc(Nc2nccc(-c3cn(CCCO)c4ccc(F)cc34)n2)c(OC)cc1F
IC50 [5]: > 1000 nM | IC50 [6]: 142 nM | IC50 [7]: 332 nM | IC50 [8]: 40.4 nM

SMILES: CCC(=O)Nc1cc(Nc2nccc(-c3cn(CCO)c4ccccc34)n2)c(OC)cc1F
IC50 [5]: > 1000 nM | IC50 [6]: 170 nM | IC50 [7]: > 1000 nM | IC50 [8]: 80.5 nM

SMILES: C=CC(=O)Nc1cc(Nc2nccc(-c3cn(CCCO)c4ccccc34)n2)c(OC)cc1F
IC50 [5]: 283 nM | IC50 [6]: 2.2 nM | IC50 [7]: > 1000 nM | IC50 [8]: 17.9 nM

SMILES: CCC(=O)Nc1cc(Nc2nccc(-c3cn(CCCO)c4ccccc34)n2)c(OC)cc1F
IC50 [5]: > 1000 nM | IC50 [6]: 127 nM | IC50 [7]: 422 nM | IC50 [8]: 72.5 nM

Second part, led by results:

IC50 [5]: > 1000 nM | IC50 [6]: 169 nM | IC50 [7]: 638 nM | IC50 [8]: 73 nM
SMILES: CCC(=O)Nc1cc(Nc2nccc(-c3cn(CCCO)c4ccccc34)n2)c(OC)cc1N(C)CCN(C)C

IC50 [5]: > 1000 nM | IC50 [6]: 208 nM | IC50 [7]: > 1000 nM | IC50 [8]: 663 nM
SMILES: CCC(=O)Nc1cc(Nc2nccc(-c3c[nH]c4c(CCO)cccc34)n2)c(OC)cc1F

IC50 [5]: > 1000 nM | IC50 [6]: 157 nM | IC50 [7]: 218 nM | IC50 [8]: 15.3 nM | IC50 (A-431): 20500 nM | IC50 (NCI-H1975): 16200 nM | IC50 (BaF3 [1]): 8510 nM | inhibition [30]: Dose-dependent effect | inhibition [31]: Dose-dependent effect | inhibition [32]: Active
SMILES: COc1cc(N(C)CCN(C)C)ccc1Nc1nccc(-c2cn(CCCO)c3ccccc23)n1
Ratio IC50 [9]: 1.27 | Ratio IC50 [10]: 2.41 | Activity (BaF3 [11]): 80.07% | Activity (BaF3 [12]): 17% | Activity (BaF3 [13]): 2.74% | Activity (BaF3 [14]): 0.19% | Activity (BaF3 [15]): 60.89% | Activity (BaF3 [16]): 24.18% | Activity (BaF3 [17]): 14.53% | Activity (BaF3 [18]): 0.4% | Activity (BaF3 [19]): 1.76% | Activity (BaF3 [20]): 74.01% | Activity (BaF3 [21]): 23.81% | Activity (BaF3 [22]): 0.42% | Activity (BaF3 [23]): Dose-dependent effect | Activity (BaF3 [2]): 48% | Activity (BaF3 [3]): 40.51% | Activity (BaF3 [4]): 10.52% | Activity (BaF3 [24]): 51.94% | Activity (BaF3 [25]): 37.81% | Activity (BaF3 [26]): 10.25% | Activity (BaF3 [27]): 53.37% | Activity (BaF3 [28]): 26.61% | Activity (BaF3 [29]): 10.02% | Activity (BaF3 [33]): Dose-dependent effect
